Laboratory results as given in PubChem BioAssay AID2060892 (Molecular Pharmacology Branch, DTP, NCI, 2025).
Where “and” joins values, the source holds several entries; their conditions need not be identical. Equal values may be shown once.

System: HOP-62 complex spheroids with HUVEC/MSC, viability
Assay: Anticancer human tumor HOP-62 cell line growth inhibition [RAS];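 also: spheroids exposed to agents for seven days before readout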;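 as to viability, T/C: 100% = DMSO vehicle control viability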
Details: for viability, T/C: stronger effect = lower value
Procedure, shortened: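 Multi-cell-type spheroids: tumor cells plus HUVEC endothelial cells and mesenchymal stem cells. RAS-pathway inhibitors were combined with targeted agents, each dosed in half-log steps down from clinical Cmax, or from 10 microM when Cmax was unknown.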

[1] = curve of first compound, second compound 0.0316 µM
[2] = curve of first compound, second compound 0.1 µM
[3] = curve of first compound, second compound 0.316 µM
[4] = curve of first compound, second compound 1 µM
[5] = second compound 0.0316 µM, first compound 0.0316 µM
[6] = second compound 0.0316 µM, first compound 0.1 µM
[7] = second compound 0.1 µM, first compound 0.0316 µM
[8] = second compound 0.1 µM, first compound 0.1 µM
[9] = second compound 0.316 µM, first compound 0.0316 µM
[10] = second compound 0.316 µM, first compound 0.1 µM
[11] = second compound 1 µM, first compound 0.0316 µM
[12] = second compound 1 µM, first compound 0.1 µM

Compound CC(C)NCC(C(=O)N1CCN(c2ncnc3c2C(C)CC3O)CC1)c1ccc(Cl)cc1 (configuration not stated) + C#Cc1c(F)ccc2cc(O)cc(-c3ncc4c(N5CC6CCC(C5)N6)nc(OCC56CCCN5CC(F)C6)nc4c3F)c12 has an IC50 [1] of 2440 nM, an IC50 [2] of 2810 nM and an IC50 [3] of 2730 nM. The IC50 [4] was 1720 nM, the IC50 (curve of first compound, second compound 3.16 µM) was 676 nM and the IC50 (curve of first compound, second compound 10 µM) was 62.1 nM. The viability, T/C [5] was 105%, the viability, T/C [6] was 113% and the viability, T/C (second compound 0.0316 µM, first compound 0.316 µM) was 92.2%. For the same compound, the viability, T/C (second compound 0.0316 µM, first compound 1 µM) was 71.2%, the viability, T/C (second compound 0.0316 µM, first compound 3.16 µM) was 44.6% and the viability, T/C (second compound 0.0316 µM, first compound 10 µM) was 28.3%. The viability, T/C [7] was 112%, the viability, T/C [8] was 105% and the viability, T/C (second compound 0.1 µM, first compound 0.316 µM) was 99.2%. The viability, T/C (second compound 0.1 µM, first compound 1 µM) was 70%, the viability, T/C (second compound 0.1 µM, first compound 3.16 µM) was 49.8% and the viability, T/C (second compound 0.1 µM, first compound 10 µM) was 28.3%. For the same compound, the viability, T/C [9] was 105%, the viability, T/C [10] was 104% and the viability, T/C (second compound 0.316 µM, first compound 0.316 µM) was 96.3%. The viability, T/C (second compound 0.316 µM, first compound 1 µM) was 73.1%, the viability, T/C (second compound 0.316 µM, first compound 3.16 µM) was 47.5% and the viability, T/C (second compound 0.316 µM, first compound 10 µM) was 27%. It also gave a viability, T/C [11] of 108%, a viability, T/C [12] of 100% and a viability, T/C (second compound 1 µM, first compound 0.316 µM) of 86.5%. It also gave a viability, T/C (second compound 1 µM, first compound 1 µM) of 59.9%, a viability, T/C (second compound 1 µM, first compound 3.16 µM) of 38.5% and a viability, T/C (second compound 1 µM, first compound 10 µM) of 23.5%. The viability, T/C (second compound 3.16 µM, first compound 0.0316 µM) was 72.2%, the viability, T/C (second compound 3.16 µM, first compound 0.1 µM) was 75% and the viability, T/C (second compound 3.16 µM, first compound 0.316 µM) was 63.9%. The viability, T/C (second compound 3.16 µM, first compound 1 µM) was 41.6%, the viability, T/C (second compound 3.16 µM, first compound 3.16 µM) was 26.1% and the viability, T/C (second compound 3.16 µM, first compound 10 µM) was 16.1%. For the same compound, the viability, T/C (second compound 10 µM, first compound 0.0316 µM) was 54.3%, the viability, T/C (second compound 10 µM, first compound 0.1 µM) was 47% and the viability, T/C (second compound 10 µM, first compound 0.316 µM) was 35.2%. For the same compound, the viability, T/C (second compound 10 µM, first compound 1 µM) was 23%, the viability, T/C (second compound 10 µM, first compound 3.16 µM) was 13.7% and the viability, T/C (second compound 10 µM, first compound 10 µM) was 9.15%.

Nc1ccn(C2OC(CO)C(O)C2(F)F)c(=O)n1 (configuration not stated) + CCn1c(-c2cc(N3CCN(C)CC3)cnc2C(C)OC)c2c3cc(ccc31)-c1csc(n1)CC(NC(=O)C1CC1C)C(=O)N1CCCC(N1)C(=O)OCC(C)(C)C2 showed an IC50 (curve of first compound, second compound 0.000949 µM) of 15.7 nM, an IC50 (curve of first compound, second compound 0.003 µM) of 12.9 nM and an IC50 (curve of first compound, second compound 0.00949 µM) of 12 nM. The IC50 (curve of first compound, second compound 0.03 µM) was 10.6 nM, the IC50 (curve of first compound, second compound 0.0949 µM) was less than 3.16 nM and the IC50 (curve of first compound, second compound 0.3 µM) was less than 3.16 nM. It also gave a viability, T/C (second compound 0.000949 µM, first compound 0.00316 µM) of 121%, a viability, T/C (second compound 0.000949 µM, first compound 0.01 µM) of 71.2% and a viability, T/C (second compound 0.000949 µM, first compound 0.0316 µM) of 16.9%. It also gave a viability, T/C (second compound 0.000949 µM, first compound 0.1 µM) of 12.5%, a viability, T/C (second compound 0.000949 µM, first compound 0.316 µM) of 9.82% and a viability, T/C (second compound 0.000949 µM, first compound 1 µM) of 5.86%. For the same compound, the viability, T/C (second compound 0.003 µM, first compound 0.00316 µM) was 93.9%, the viability, T/C (second compound 0.003 µM, first compound 0.01 µM) was 56% and the viability, T/C (second compound 0.003 µM, first compound 0.0316 µM) was 29.5%. The viability, T/C (second compound 0.003 µM, first compound 0.1 µM) was 19.4%, the viability, T/C (second compound 0.003 µM, first compound 0.316 µM) was 14.9% and the viability, T/C (second compound 0.003 µM, first compound 1 µM) was 8.45%. For the same compound, the viability, T/C (second compound 0.00949 µM, first compound 0.00316 µM) was 68.1%, the viability, T/C (second compound 0.00949 µM, first compound 0.01 µM) was 52.5% and the viability, T/C (second compound 0.00949 µM, first compound 0.0316 µM) was 36.2%. The viability, T/C (second compound 0.00949 µM, first compound 0.1 µM) was 26.6%, the viability, T/C (second compound 0.00949 µM, first compound 0.316 µM) was 17.5% and the viability, T/C (second compound 0.00949 µM, first compound 1 µM) was 17.3%. It also gave a viability, T/C (second compound 0.03 µM, first compound 0.00316 µM) of 60.4%, a viability, T/C (second compound 0.03 µM, first compound 0.01 µM) of 49.2% and a viability, T/C (second compound 0.03 µM, first compound 0.0316 µM) of 40.3%. The viability, T/C (second compound 0.03 µM, first compound 0.1 µM) was 31%, the viability, T/C (second compound 0.03 µM, first compound 0.316 µM) was 20.8% and the viability, T/C (second compound 0.03 µM, first compound 1 µM) was 25.1%. For the same compound, the viability, T/C (second compound 0.0949 µM, first compound 0.00316 µM) was 45.6%, the viability, T/C (second compound 0.0949 µM, first compound 0.01 µM) was 38.4% and the viability, T/C (second compound 0.0949 µM, first compound 0.0316 µM) was 35.6%. It also gave a viability, T/C (second compound 0.0949 µM, first compound 0.1 µM) of 28.9%, a viability, T/C (second compound 0.0949 µM, first compound 0.316 µM) of 23.9% and a viability, T/C (second compound 0.0949 µM, first compound 1 µM) of 27.4%. It also gave a viability, T/C (second compound 0.3 µM, first compound 0.00316 µM) of 43.5%, a viability, T/C (second compound 0.3 µM, first compound 0.01 µM) of 38.8% and a viability, T/C (second compound 0.3 µM, first compound 0.0316 µM) of 39.7%. The viability, T/C (second compound 0.3 µM, first compound 0.1 µM) was 25.9%, the viability, T/C (second compound 0.3 µM, first compound 0.316 µM) was 25.9% and the viability, T/C (second compound 0.3 µM, first compound 1 µM) was 31.7%.

CC(C)n1nc(-c2ccc3oc(N)nc3c2)c2c(N)ncnc21 + C=CC(=O)N1CCN(c2nc(OCC3CCCN3C)nc3c(F)c(-c4nc(N)cc(C)c4C(F)(F)F)c(Cl)cc23)C(C)C1 gave an IC50 (curve of first compound, second compound 0.00316 µM) of 3.91 nM, an IC50 (curve of first compound, second compound 0.01 µM) of 3.62 nM and an IC50 [1] of 1.35 nM. It also gave an IC50 [2] of 1.29 nM, an IC50 [3] of 1.3 nM and an IC50 [4] of 1.54 nM. For the same compound, the viability, T/C (second compound 0.00316 µM, first compound 0.000316 µM) was 65.2%, the viability, T/C (second compound 0.00316 µM, first compound 0.001 µM) was 62.2% and the viability, T/C (second compound 0.00316 µM, first compound 0.00316 µM) was 51.7%. For the same compound, the viability, T/C (second compound 0.00316 µM, first compound 0.01 µM) was 39.5%, the viability, T/C (second compound 0.00316 µM, first compound 0.0316 µM) was 26.7% and the viability, T/C (second compound 0.00316 µM, first compound 0.1 µM) was 17.2%. It also gave a viability, T/C (second compound 0.01 µM, first compound 0.000316 µM) of 63%, a viability, T/C (second compound 0.01 µM, first compound 0.001 µM) of 62.7% and a viability, T/C (second compound 0.01 µM, first compound 0.00316 µM) of 52.6%. It also gave a viability, T/C (second compound 0.01 µM, first compound 0.01 µM) of 33%, a viability, T/C (second compound 0.01 µM, first compound 0.0316 µM) of 27% and a viability, T/C (second compound 0.01 µM, first compound 0.1 µM) of 17.2%. The viability, T/C (second compound 0.0316 µM, first compound 0.000316 µM) was 61.4%, the viability, T/C (second compound 0.0316 µM, first compound 0.001 µM) was 51.9% and the viability, T/C (second compound 0.0316 µM, first compound 0.00316 µM) was 43%. For the same compound, the viability, T/C (second compound 0.0316 µM, first compound 0.01 µM) was 34.4%, the viability, T/C [5] was 23.9% and the viability, T/C [6] was 14%. The viability, T/C (second compound 0.1 µM, first compound 0.000316 µM) was 59.5%, the viability, T/C (second compound 0.1 µM, first compound 0.001 µM) was 53.2% and the viability, T/C (second compound 0.1 µM, first compound 0.00316 µM) was 40.6%. It also gave a viability, T/C (second compound 0.1 µM, first compound 0.01 µM) of 27%, a viability, T/C [7] of 20.8% and a viability, T/C [8] of 14.1%. For the same compound, the viability, T/C (second compound 0.316 µM, first compound 0.000316 µM) was 61.1%, the viability, T/C (second compound 0.316 µM, first compound 0.001 µM) was 49.6% and the viability, T/C (second compound 0.316 µM, first compound 0.00316 µM) was 45.8%. The viability, T/C (second compound 0.316 µM, first compound 0.01 µM) was 25.9%, the viability, T/C [9] was 22.1% and the viability, T/C [10] was 12.9%. The viability, T/C (second compound 1 µM, first compound 0.000316 µM) was 64.9%, the viability, T/C (second compound 1 µM, first compound 0.001 µM) was 50.1% and the viability, T/C (second compound 1 µM, first compound 0.00316 µM) was 47.7%. The viability, T/C (second compound 1 µM, first compound 0.01 µM) was 30.2%, the viability, T/C [11] was 20.9% and the viability, T/C [12] was 13.2%.

In the case of C[C@@H](NC(=O)c1ncnc(N)c1Cl)c1ncc(C(=O)Nc2cc(C(F)(F)F)c(Cl)cn2)s1, the viability, T/C (compound 0.0316 µM) is reported as 102% (2×) and 107% and 101%, the viability, T/C (compound 0.1 µM) is reported as 98.6% [middle of 4 runs] and the viability, T/C (compound 0.316 µM) is reported as 105% and 98.1% and 104% (2×). For the same compound, the viability, T/C (compound 1 µM) was 104% [middle of 4 runs], the viability, T/C (compound 3.16 µM) was 96% [middle of 4 runs] and the IC50 (curve of compound) was greater than 10000 nM.
